Source: paper PMC9032693, “Biological Evaluation of New Thienopyridinium and Thienopyrimidinium Derivatives as Human Choline Kinase Inhibitors” (Pharmaceutics, 2022)
Where two headings read alike, the source gives them in different places.

Tests used:
CKα1 = biological target: T1, CKα1 (Homo sapiens, UniProt P35790); assay: Choline kinase assay ([methyl-14C]choline into PCho, purified enzyme); assay type: biochemical; details: for IC50: concentration required to inhibit CKα1 enzyme by 50%; for % Inhibition at 10 µM: purified CKα1, inhibitor 10 µM; for % Inhibition at 10 µM / % Inhibition at 30 µM: end-point assay; for % Inhibition at 30 µM: purified CKα1, inhibitor 30 µM
T1 construct: an N-terminally His-tagged truncated form of CKα1 (Δ75–457) was cloned into a pET-28a vector; His tag (N); made in house; host or cells: E. coli BL21 (DE3) Star
Experimental: The protein was produced and purified as previously described. Briefly, an N-terminally His-tagged truncated form of CKα1 (Δ75–457) was cloned into a pET-28a vector and expressed at 37 °C in E. coli BL21 (DE3) Star cells using 1 mM isopropyl β-D-1-thiogalactopyranoside (IPTG). After centrifugation, the cellular pellet was resuspended in 50 mM Tris-HCl pH 7.5, 500 mM NaCl, 0.2 mM phenylmethylsulphonyl fluoride (PMSF), DNase, and 0.5 mM β-mercaptoethanol, sonicated and subjected to a two-step purification procedure to isolate the target enzyme. […] Protein elution was completed using buffer A + 400 mM imidazole. A second size-exclusion chromatography step was then carried out to achieve complete purity. To this end, we used a HiPrep 26/60 Sephacryl 100 HR column (GE Healthcare, Little Chalfont, Buckinghamshire, UK) and a 20 mM Tris/HCl pH 7.5, 150 mM NaCl running buffer.
To study the effect of the compounds on CKα, an in vitro enzymatic assay was performed using the purified enzyme as previously reported in [19, 28, 29]. Briefly, the incorporation of ^14C from [methyl-^14C]choline into PCho in either the absence (control) or presence of different inhibitors at varying concentrations was used to determine the CK activity. The reaction mixture included 20 ng of purified CKα1, 10 mM ATP, 10 mM MgCl2, 100 mM Tris-HCl pH 8.5, and increasing concentrations of compounds. The mixture was preincubated at 37 °C for 5 min. Then, [methyl-^14C]choline chloride (1 mM, 4500 dpm/nmol) was added and the reaction was left to proceed for 10 min at 37 °C. The assay was stopped by immersing the reaction tubes in boiling water. PCho was separated by Thin Layer Chromatography using methanol/0.6% NaCl/28% NH4OH in water (50:50:5, v/v/v) as solvent. The radioactivity associated into PCho was determined in a Beckman 6000-TA (Madrid, Spain) liquid scintillation counter. The 50% inhibitory concentrations (IC50 values) were determined from the % enzyme activity at different concentrations of synthetic inhibitors relative to the control by using a sigmoidal dose–response curve (ED50plus v1.0 software).

A549 = assay: Antiproliferative activity, resazurin assay, 72 h; assay type: cell-based, human
Experimental: (§1) Human cervix carcinoma (HeLa), Non-small lung adenocarcinoma (A549), Colon adenocarcinoma (HT29), and human triple negative breast cancer (MDA-MB-231) were cultured in Dulbecco’s modified Eagle’s media (DMEM). B-acute lymphoblastic leukemia (RS4;11 and SEM), T-acute lymphoblastic leukemia (Jurkat), and human promyelocytic cells (HL-60), were cultured in RPMI-1640 medium. Both media were purchased from Gibco, Life Technologies (Milan, Italy) and supplemented with 10% Fetal Bovine Serum (FBS, Invitrogen, Milan, Italy,). Every six months, each cell line was checked for the presence of mycoplasma by RT-PCR.
(§2) Stock solutions (10 mM) of the different compounds were made in DMSO. Cancer cells were seeded in tissue-treated, flat bottom, 384-well plates (Corning) according to their optimal density, (A549 1000 cells/wells; MDA-MB-231, HeLa and HT-29 2000 cells/well and finally Jurkat, HL-60 SEM and RS4;11 20.000 cells/well) in 27 µL of complete medium per well.
(§3) The day after cell seeding and immediately before cell treatment, 10 mM stock solutions of the compounds were pre-diluted to a […] concentration in 250 µL of Hank’s in a 96-well plate (Corning). Subsequent 1:5 dilutions were carried out using a microlab STAR 96-CORE liquid handling system (Hamilton), a robotized liquid handling tool that was employed for all steps, from cell seeding to drug dilution and cell treatment to ensure high reproducibility while reducing time for large screening execution. This pre-dilution step was necessary to avoid DMSO-related cytotoxicity and compound precipitation in the cell culture medium. In every case, DMSO concentration never exceeded 0.1%.
(§4) Positive (Bortezomib 1 µM) and negative (0.1% DMSO) controls were included in all the screened plates to allow for monitoring the Z’ factor throughout the entire screening. Cells were treated with 3 µL of the previously made dilutions; thus, generating a 6-point 5-fold dose–response curve starting from 10 µM. Within a plate, each drug concentration was tested in duplicate in two independent experiments for each compound.
(§5) Treated cells were then placed inside the CO2 incubator for 72 h at 37 °C. Cell viability was assessed by resazurin assay, in which 3 µL of resazurin per well were added using the previously described automated platform. Plates were placed in the incubator at 37 °C for 2 h, and then the fluorescence of each plate was read using a Spark 10 M multimode microplate reader (Tecan Group Ltd., Mannedorf, Switzerland) with 535 nm excitation wavelength and 600 nm emission wavelength.

HL-60 = assay: Antiproliferative activity, resazurin assay, 72 h; assay type: cell-based, human
Experimental: as §1, §2, §3, §4, §5

HT29 = assay: Antiproliferative activity, resazurin assay, 72 h; assay type: cell-based, human
Experimental: as §1, §2, §3, §4, §5

HeLa = assay: Antiproliferative activity, resazurin assay, 72 h; assay type: cell-based, human
Experimental: as §1, §2, §3, §4, §5

Jurkat = assay: Antiproliferative activity, resazurin assay, 72 h; assay type: cell-based, human
Experimental: as §1, §2, §3, §4, §5

MDA-MB-231 = assay: Antiproliferative activity, resazurin assay, 72 h; assay type: cell-based, human
Experimental: as §1, §2, §3, §4, §5

RS 4;11 = assay: Antiproliferative activity, resazurin assay, 72 h; assay type: cell-based, human
Experimental: as §1, §2, §3, §4, §5

SEM cells = assay: Antiproliferative activity, resazurin assay, 72 h; assay type: cell-based, human
Experimental: as §1, §2, §3, §4, §5

T1 sequence (P35790 75-457): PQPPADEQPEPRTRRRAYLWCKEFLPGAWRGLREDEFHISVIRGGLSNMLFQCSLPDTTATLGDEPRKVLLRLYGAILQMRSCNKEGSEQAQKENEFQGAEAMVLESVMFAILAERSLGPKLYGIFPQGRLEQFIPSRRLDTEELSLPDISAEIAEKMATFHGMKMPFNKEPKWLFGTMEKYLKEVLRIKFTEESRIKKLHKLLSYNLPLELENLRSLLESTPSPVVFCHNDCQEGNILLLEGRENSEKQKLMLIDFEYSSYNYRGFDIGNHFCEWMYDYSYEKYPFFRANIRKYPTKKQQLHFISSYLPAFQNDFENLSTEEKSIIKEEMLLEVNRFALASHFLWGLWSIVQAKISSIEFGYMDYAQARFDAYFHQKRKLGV

IC50 (CKα1) [µM]	% Inhibition at 10 µM (CKα1) [%]	% Inhibition at 30 µM (CKα1) [%]	GI50 (A549) [µM]	GI50 (HL-60) [µM]	GI50 (HT29) [µM]	GI50 (HeLa) [µM]	GI50 (Jurkat) [µM]	GI50 (MDA-MB-231) [µM]	inhibition at 5 µM (CKα1; purified CKα1, inhibitor 5 µM, read-out: percentage inhibition at 5 µM) [%]	GI50 (A549; Homo sapiens, A549) [µM]	GI50 (HL-60; Homo sapiens, HL-60) [µM]	GI50 (HT29; Homo sapiens, HT-29) [µM]	GI50 (HeLa; Homo sapiens, HeLa) [µM]	GI50 (Jurkat; Homo sapiens, Jurkat) [µM]	GI50 (MDA-MB-231; Homo sapiens, MDA-MB-231) [µM]	Structure (SMILES)	GI50 (RS 4;11) [µM]	GI50 (SEM cells) [µM]	GI50 (RS 4;11; Homo sapiens, RS4-11) [µM]	GI50 (SEM cells; Homo sapiens) [µM]
3.25 ± 0.54	87.69	92.19	0.29 ± 0.02	0.35 ± 0.01	> 10	0.59 ± 0.02	> 10	0.19 ± 0.01	–	–	–	–	–	–	–	[Br-].[Br-].c1cc2c(s1)c(N1CCCCC1)nc[n+]2Cc1ccc(OCCOc2ccc(C[n+]3cnc(N4CCCCC4)c4sccc43)cc2)cc1 [Fa-28]	2.32 ± 0.03	2.41 ± 0.04	–	–
1.08 ± 0.07	–	–	–	–	–	–	–	–	85	0.14 ± 0.02	0.55 ± 0.02	1.09 ± 0.2	0.84 ± 0.04	5.23 ± 0.8	0.5 ± 0.02	c1cc2c(s1)c(N1CCCCCC1)nc[n+]2Cc1ccc(CCCCc2ccc(C[n+]3cnc(N4CCCCCC4)c4sccc43)cc2)cc1 [Fa-29]	–	–	1.6 ± 0.1	1.77 ± 0.2
1.67 ± 0.08	98.90	97.80	0.16 ± 0.01	0.14 ± 0.01	1.07 ± 0.1	0.28 ± 0.02	1.46 ± 0.1	0.41 ± 0.02	–	–	–	–	–	–	–	[Br-].[Br-].c1cc2c(s1)c(N1CCCCC1)nc[n+]2Cc1ccc(CCCCc2ccc(C[n+]3cnc(N4CCCCC4)c4sccc43)cc2)cc1 [Fa-33]	0.76 ± 0.1	1.37 ± 0.07	–	–
1.54 ± 0.17	82.15	90.83	0.97 ± 0.02	0.79 ± 0.05	3.32 ± 0.03	1.9 ± 0.01	4.13 ± 0.4	1.23 ± 0.01	–	–	–	–	–	–	–	[Br-].[Br-].c1cc2c(s1)c(N1CCCC1)cc[n+]2Cc1ccc(CCCCc2ccc(C[n+]3ccc(N4CCCC4)c4sccc43)cc2)cc1 [Ff-1]	7.9 ± 1.3	3.07 ± 0.3	–	–
–	77.41	82.77	1.06 ± 0.1	2.14 ± 0.1	> 10	3.26 ± 0.4	> 10	1.43 ± 0.2	–	–	–	–	–	–	–	[Br-].[Br-].c1cc2c(s1)c(N1CCCC1)cc[n+]2Cc1ccc(OCCOc2ccc(C[n+]3ccc(N4CCCC4)c4sccc43)cc2)cc1 [Ff-2]	> 10	> 10	–	–

Structure (SMILES)	IC50 (CKα1) [µM]	% Inhibition at 10 µM (CKα1) [%]	% Inhibition at 30 µM (CKα1) [%]	GI50 (A549) [µM]	GI50 (HL-60) [µM]	GI50 (HT29) [µM]	GI50 (HeLa) [µM]	GI50 (Jurkat) [µM]	GI50 (MDA-MB-231) [µM]	inhibition at 5 µM (CKα1; purified CKα1, inhibitor 5 µM, read-out: percentage inhibition at 5 µM) [%]	GI50 (A549; Homo sapiens, A549) [µM]	GI50 (HL-60; Homo sapiens, HL-60) [µM]	GI50 (HT29; Homo sapiens, HT-29) [µM]	GI50 (HeLa; Homo sapiens, HeLa) [µM]	GI50 (Jurkat; Homo sapiens, Jurkat) [µM]	GI50 (MDA-MB-231; Homo sapiens, MDA-MB-231) [µM]	GI50 (RS 4;11) [µM]	GI50 (SEM cells) [µM]	GI50 (RS 4;11; Homo sapiens, RS4-11) [µM]	GI50 (SEM cells; Homo sapiens) [µM]
[Br-].[Br-].c1cc2c(s1)c(N1CCCC1)nc[n+]2Cc1ccc(-c2ccc(C[n+]3cnc(N4CCCC4)c4sccc43)cc2)cc1 [Fa-21]	≥ 5	74.57	86.58	0.22 ± 0.01	3.4 ± 0.7	> 10	> 10	> 10	1.71 ± 0.4	–	–	–	–	–	–	–	> 10	> 10	–	–
[Br-].[Br-].c1cc2c(s1)c(N1CCCCC1)nc[n+]2Cc1ccc(-c2ccc(C[n+]3cnc(N4CCCCC4)c4sccc43)cc2)cc1 [Fa-24]	2.33 ± 0.21	84.64	98.40	1.17 ± 0.2	7.28 ± 1.1	> 10	7.08 ± 1.3	> 10	0.7 ± 0.07	–	–	–	–	–	–	–	> 10	> 10	–	–
